{"source": "patent US6596707B2", "about": "“Monovalent saccharides and uses thereof” (priority 2001, dated 2003)", "key": {"[1]": {"target": "Shiga-like toxin II (SLT II) (Escherichia phage 933W, UniProt P09386)", "sequence (P09386 whole entry, looked up)": "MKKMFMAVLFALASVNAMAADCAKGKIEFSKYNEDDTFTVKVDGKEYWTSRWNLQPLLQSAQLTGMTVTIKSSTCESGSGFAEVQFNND", "type": "cell-based, E. coli O157:H7"}, "[2]": {"target": "Shiga-like toxin I (SLT I) (Bacteriophage H30, UniProt P69178)", "sequence (P69178 whole entry, looked up)": "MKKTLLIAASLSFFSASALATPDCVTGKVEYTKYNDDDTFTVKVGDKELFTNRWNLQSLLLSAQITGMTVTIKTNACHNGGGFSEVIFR"}, "[3]": {"assay": "Pharmacokinetics of globotriose in mice after IV or oral administration"}, "[4]": {"assay": "Toxicity of globotriose administered to mice (previous pharmacokinetic studies)"}}}
{"smiles": "OC[C@H]1O[C@H](O[C@@H]2[C@H](O)[C@@H](O)[C@H](O[C@H]3[C@H](O)[C@@H](O)C(O)O[C@@H]3CO)O[C@@H]2CO)[C@H](O)[C@@H](O)[C@H]1O", "note": "(stereo partly drawn) [globotriose, galactose α1,4 galactose β1,4 glucose]", "values": [{"measurement": "inhibition of cell death from SLT II", "setting": "[1]", "result": 8, "unit": "%"}, {"measurement": "inhibition of cell death from SLT I", "setting": "[2]", "result": 52, "unit": "%"}, {"measurement": "reduction of cytotoxicity (SLT I), toxin pre-attached", "setting": "[2]", "result": 33, "unit": "%"}, {"measurement": "clearance kinetics", "setting": "[3]; IV administered", "result": "bi-exponential clearance kinetics"}, {"measurement": "time over which excreted through the kidneys", "setting": "[3]; IV administered", "result": "> 24", "unit": "h"}, {"measurement": "bioavailable (oral dose crossed into circulation)", "setting": "[3]; orally administered", "result": "approximately 10%"}, {"measurement": "excreted in the urine, time post-dose", "setting": "[3]; orally administered", "result": "up to 48 hours"}, {"measurement": "fate of the majority of orally administered dose", "setting": "[3]; orally administered", "result": "excreted into the feces unmetabolized"}, {"measurement": "kinetics", "setting": "[3]; orally administered", "result": "bi-exponential kinetics"}, {"measurement": "toxic effects after intravenous administration", "setting": "[4]; intravenously 333 mg/kg", "result": "no toxic effects"}, {"measurement": "toxic effects after oral administration", "setting": "[4]; orally 3333 mg/kg", "result": "no toxic effects"}]}
